Results reported in paper PMC6126659, “Structural basis for light control of cell development revealed by crystal structures of a myxobacterial phytochrome” (IUCrJ, 2018).

What was measured:
Assay type in all cases: binding
SaBphP1-CBD (PAS-GAF) = molecular target: T1, SaBphP1-CBD (PAS-GAF) (Allostigmatella aurantiaca, UniProt Q097N3); test: X-ray crystallography ([…] K, […] A); conditions: covalent, Cys18; dark-adapted Pr state; pH 8.5
T1 construct: gene STIAU_3396; crystallographic dimer

[1] = molecular target: T2, SaBphP1-PCM (PAS-GAF-PHY) (Allostigmatella aurantiaca, UniProt Q097N3, Y262F/T289H); test: UV-vis absorption spectroscopy of bilin-bound protein; conditions: covalent; dark / 700 / 750 nm illumination, room temperature
T2 construct: gene STIAU_3396; photosensory core module PAS-GAF-PHY, residues 1-516, pET28c(+), E. coli BL21(DE3) co-expressing heme oxygenase; dimer; histidine kinase domain absent
T2 sequence (Q097N3 entry or part of it Y262F/T289H): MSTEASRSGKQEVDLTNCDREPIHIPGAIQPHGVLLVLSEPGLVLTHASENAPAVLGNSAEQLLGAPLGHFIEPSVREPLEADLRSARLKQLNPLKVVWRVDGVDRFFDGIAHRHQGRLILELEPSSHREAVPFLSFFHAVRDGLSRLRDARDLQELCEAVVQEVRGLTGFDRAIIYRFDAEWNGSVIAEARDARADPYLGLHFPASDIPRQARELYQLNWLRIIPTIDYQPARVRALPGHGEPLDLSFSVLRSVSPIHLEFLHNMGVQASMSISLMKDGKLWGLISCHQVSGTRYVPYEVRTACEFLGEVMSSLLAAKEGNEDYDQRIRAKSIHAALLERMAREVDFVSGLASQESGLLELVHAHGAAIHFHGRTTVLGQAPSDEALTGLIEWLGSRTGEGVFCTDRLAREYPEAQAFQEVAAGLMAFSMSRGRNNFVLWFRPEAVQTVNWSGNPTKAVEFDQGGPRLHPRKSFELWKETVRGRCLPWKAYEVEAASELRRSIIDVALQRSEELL

[2] = molecular target: T3, SaBphP1-PCM (PAS-GAF-PHY) (Allostigmatella aurantiaca, UniProt Q097N3, T289H); test: X-ray crystallography ([…] K, […] A; XFEL […] K, […] A); conditions: covalent, Cys18; dark-adapted Pr state; pH 6.2
T3 construct: gene STIAU_3396; photosensory core module PAS-GAF-PHY, residues 1-516, pET28c(+), E. coli BL21(DE3) co-expressing heme oxygenase; dimer; histidine kinase domain absent
T3 sequence (Q097N3 entry or part of it T289H): as the sequence (Q097N3 entry or part of it Y262F/T289H) above, with F262Y counted along it

[3] = molecular target: T4, SaBphP1-PCM (PAS-GAF-PHY) (Allostigmatella aurantiaca, UniProt Q097N3, D208T/T289H); test: UV-vis absorption spectroscopy of bilin-bound protein; conditions: covalent; 740 / 700 nm illumination, room temperature
T4 construct: gene STIAU_3396; photosensory core module PAS-GAF-PHY, residues 1-516, pET28c(+), E. coli BL21(DE3) co-expressing heme oxygenase; dimer; histidine kinase domain absent
T4 sequence (Q097N3 entry or part of it D208T/T289H): as the sequence (Q097N3 entry or part of it Y262F/T289H) above, with D208T, F262Y counted along it

[4] = molecular target: T5, SaBphP1-PCM (PAS-GAF-PHY) (Allostigmatella aurantiaca, UniProt Q097N3); test: X-ray crystallography ([…] K, […] A); conditions: covalent, Cys18; dark-adapted Pr state; pH 6.2
T5 construct: gene STIAU_3396; photosensory core module PAS-GAF-PHY, residues 1-516, pET28c(+), E. coli BL21(DE3) co-expressing heme oxygenase; dimer; histidine kinase domain absent
T5 sequence (Q097N3 entry or part of it): as the sequence (Q097N3 entry or part of it Y262F/T289H) above, with F262Y, H289T counted along it

T1 sequence (Q097N3 entry or part of it): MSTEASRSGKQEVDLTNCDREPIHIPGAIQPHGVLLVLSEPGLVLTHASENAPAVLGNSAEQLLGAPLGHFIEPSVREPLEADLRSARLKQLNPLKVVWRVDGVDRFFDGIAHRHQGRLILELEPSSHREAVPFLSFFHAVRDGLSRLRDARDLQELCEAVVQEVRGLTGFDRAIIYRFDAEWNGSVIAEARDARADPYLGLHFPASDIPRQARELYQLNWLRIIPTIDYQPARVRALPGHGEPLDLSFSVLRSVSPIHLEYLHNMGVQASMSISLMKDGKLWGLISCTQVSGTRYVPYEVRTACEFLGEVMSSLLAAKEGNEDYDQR

Structure (SMILES): C=CC1=C(C)C(=Cc2[nH]c(C=C3N=C(C=C4NC(=O)C(C)=C4C=C)C(C)=C3CCC(=O)O)c(CCC(=O)O)c2C)NC1=O [biliverdin]
- X-ray crystallography (100 K, 2.25 A) (SaBphP1-CBD (PAS-GAF)): The BV chromophore is bound to Cys18 close to the N-terminus
- UV-vis absorption spectroscopy of bilin-bound protein [1]: the dark-adapted spectrum of the Y262F T289H double mutant
- X-ray crystallography (100 K, 2.65 A; XFEL 293 K, 3.15 A) [2]: the BV A ring tilts with the covalent bond to the Cys18 S atom
- UV-vis absorption spectroscopy of bilin-bound protein [3]: The mutation of Asp208 to threonine (D208T) abolishes the formation of a stable E-configuration
- X-ray crystallography (100 K, 2.25 A) [4]: electron density that appeared in the chromophore binding pocket was interpreted by a biliverdin linked to Cys18
